Values after ≈ are worked out from the molar mass of the structure shown.
Key:
Escherichia coli [1] = test: Antibacterial activity against wild type Escherichia coli MC4100 by broth microdilution method; type: functional
Escherichia coli [2] = test: Antibacterial activity against Escherichia coli imp-4213 by broth microdilution method; type: functional
Staphylococcus aureus [3] = test: Antibacterial activity against fluoroquinolone-resistant Staphylococcus aureus NB01006-AVR005 harboring gyrA S84L, parC S80F, parE E471K by broth microdilution method; type: functional
Pseudomonas aeruginosa [4] = test: Antibacterial activity against mexX, mexB deficient Pseudomonas aeruginosa NB52023-CDK006 harboring gyrAT83I and parC S87L by broth microdilution method; type: functional
Pseudomonas aeruginosa [5] = test: Antibacterial activity against wild type Pseudomonas aeruginosa PAO1 by broth microdilution method; type: functional
Pseudomonas aeruginosa [6] = test: Antibacterial activity against Pseudomonas aeruginosa K1542 deficient with mexX, mexB by broth microdilution method; type: functional
Escherichia coli [7] = test: Antibacterial activity against wild type Escherichia coli ATCC 25922 by broth microdilution method; type: functional
Escherichia coli [8] = test: Antibacterial activity against tolC-deficient Escherichia coli JW5503-1 by broth microdilution method; type: functional
Staphylococcus aureus [9] = test: Antibacterial activity against wild type Staphylococcus aureus ATCC 29213 by broth microdilution method; type: functional
Escherichia coli [10] = test: Antibacterial activity against wild type Escherichia coli BW5328/pAH69 by broth microdilution method; type: functional
Pseudomonas aeruginosa [11] = test: Antibacterial activity against mexX, mexB deficient Pseudomonas aeruginosa NB52023-CDK005 harboring gyrAT83I by broth microdilution method; type: functional
Escherichia coli [12] = test: Antibacterial activity against tolC-deficient Escherichia coli NB27005-CDY0039 expressing gyrA S83L […], parC S80I mutant by broth microdilution method; type: functional
Staphylococcus aureus [13] = test: Antibacterial activity against wild type methicillin-susceptible Staphylococcus aureus ATCC 49951 by broth microdilution method; type: functional
Escherichia coli [14] = test: Antibacterial activity against fluoroquinolone-resistant Escherichia coli CH10 harboring gyrA S83L D87N, parC S80I E84G, AcrA+ by broth microdilution method; type: functional
[15] = Inhibition of Escherichia coli recombinant gyrase A2B2 assessed as reduction of pHOT-1 supercoiling after 90 mins

SMILES	MIC (Escherichia coli [1]) [µg/mL]	MIC (Escherichia coli [2]) [µg/mL]	MIC (Staphylococcus aureus [3]) [µg/mL]	MIC (Pseudomonas aeruginosa [4]) [µg/mL]	MIC (Pseudomonas aeruginosa [5]) [µg/mL]	MIC (Pseudomonas aeruginosa [6]) [µg/mL]	MIC (Escherichia coli [7]) [µg/mL]	MIC (Escherichia coli [8]) [µg/mL]	MIC (Staphylococcus aureus [9]) [µg/mL]	MIC (Escherichia coli [10]) [µg/mL]	MIC (Pseudomonas aeruginosa [11]) [µg/mL]	MIC (Escherichia coli [12]) [µg/mL]	MIC (Staphylococcus aureus [13]) [µg/mL]	MIC (Escherichia coli [14]) [µg/mL]	IC50 [15] [µM]
O=C(O)c1cn(C2CC2)c2cc(N3CCN(CCOCCOCCOCCOCCOCCOCCOCCN4CCN(c5cc6c(cc5F)c(=O)c(C(=O)O)cn6C5CC5)CC4)CC3)c(F)cc2c1=O	4 (≈ 4.01 µM)	4 (≈ 4.01 µM)	> 32	> 32	16 (≈ 16 µM)	16 (≈ 16 µM)	2 (≈ 2.01 µM)	0.125 (≈ 0.125 µM)	4 (≈ 4.01 µM)	4 (≈ 4.01 µM)	> 32	8 (≈ 8.02 µM)	1 (≈ 1 µM)	> 32	1.38
O=C(NCC(=O)N1CCN(c2cc3c(cc2F)c(=O)c(C(=O)O)cn3C2CC2)CC1)c1cccc(C(=O)NCC(=O)N2CCN(c3cc4c(cc3F)c(=O)c(C(=O)O)cn4C3CC3)CC2)c1	2 (≈ 2.21 µM)	0.25 (≈ 0.276 µM)	> 32	> 32	16 (≈ 17.6 µM)	2 (≈ 2.21 µM)	1 (≈ 1.1 µM)	0.25 (≈ 0.276 µM)	> 32	2 (≈ 2.21 µM)	32 (≈ 35.3 µM)	> 32	1 (≈ 1.1 µM)	> 32	3.2
O=C(CN1CCN(c2cc3c(cc2F)c(=O)c(C(=O)O)cn3C2CC2)CC1)NCCOCCOCCNC(=O)CN1CCN(c2cc3c(cc2F)c(=O)c(C(=O)O)cn3C2CC2)CC1	32 (≈ 35.9 µM)	8 (≈ 8.98 µM)	> 32	> 32	> 32	32 (≈ 35.9 µM)	32 (≈ 35.9 µM)	4 (≈ 4.49 µM)	> 32	32 (≈ 35.9 µM)	> 32	> 32	> 32	> 32	1.04
O=C(O)c1cn(C2CC2)c2cc(N3CCN(CCOCCOCCOCCOCCOCCN4CCN(c5cc6c(cc5F)c(=O)c(C(=O)O)cn6C5CC5)CC4)CC3)c(F)cc2c1=O	4 (≈ 4.4 µM)	0.125 (≈ 0.138 µM)	> 32	> 32	32 (≈ 35.2 µM)	8 (≈ 8.8 µM)	2 (≈ 2.2 µM)	0.125 (≈ 0.138 µM)	8 (≈ 8.8 µM)	2 (≈ 2.2 µM)	> 32	> 32	2 (≈ 2.2 µM)	> 32	10
O=CN1CCN(c2cc3c(cc2F)c(=O)c(C(=O)O)cn3C2CC2)CC1	0.25 (≈ 0.696 µM)	≤ 0.03	32 (≈ 89 µM)	32 (≈ 89 µM)	2 (≈ 5.57 µM)	0.25 (≈ 0.696 µM)	0.125 (≈ 0.348 µM)	≤ 0.03	0.25 (≈ 0.696 µM)	0.125 (≈ 0.348 µM)	16 (≈ 44.5 µM)	4 (≈ 11.1 µM)	0.25 (≈ 0.696 µM)	> 32	0.25
O=C(CCN1CCN(c2cc3c(cc2F)c(=O)c(C(=O)O)cn3C2CC2)CC1)NCCOCCOCCNC(=O)CCN1CCN(c2cc3c(cc2F)c(=O)c(C(=O)O)cn3C2CC2)CC1	8 (≈ 8.71 µM)	4 (≈ 4.35 µM)	> 32	> 32	> 32	> 32	8 (≈ 8.71 µM)	1 (≈ 1.09 µM)	> 32	8 (≈ 8.71 µM)	> 32	> 32	> 32	> 32	2.14
CC[C@H]1OC(=O)[C@H](C)[C@@H](O[C@H]2C[C@@](C)(OC)[C@@H](O)[C@H](C)O2)[C@H](C)[C@@H](O[C@@H]2O[C@H](C)C[C@H](N(C)C)[C@H]2O)[C@](C)(O)C[C@@H](C)C(=O)[C@H](C)[C@@H](O)[C@]1(C)O [ERYTHROMYCIN]	> 32	2 (≈ 2.73 µM)	0.5 (≈ 0.681 µM)	> 32	> 32	> 32	> 32	2 (≈ 2.73 µM)	0.25 (≈ 0.341 µM)	32 (≈ 43.6 µM)	> 32	2 (≈ 2.73 µM)	0.25 (≈ 0.341 µM)	> 32	–
O=C(O)c1cn(C2CC2)c2cc(N3CCN(C(=O)c4cccc(C(=O)N5CCN(c6cc7c(cc6F)c(=O)c(C(=O)O)cn7C6CC6)CC5)c4)CC3)c(F)cc2c1=O	> 32	0.06 (≈ 0.0757 µM)	> 32	> 32	> 32	> 32	> 32	0.125 (≈ 0.158 µM)	2 (≈ 2.52 µM)	> 32	> 32	> 32	0.25 (≈ 0.315 µM)	> 32	0.11
O=C(NCCCCC(=O)N1CCN(c2cc3c(cc2F)c(=O)c(C(=O)O)cn3C2CC2)CC1)c1cccc(C(=O)NCCCCC(=O)N2CCN(c3cc4c(cc3F)c(=O)c(C(=O)O)cn4C3CC3)CC2)c1	16 (≈ 16.1 µM)	2 (≈ 2.02 µM)	> 32	> 32	> 32	> 32	16 (≈ 16.1 µM)	0.5 (≈ 0.505 µM)	> 32	16 (≈ 16.1 µM)	> 32	> 32	4 (≈ 4.04 µM)	> 32	9.97
O=C(O)c1cn(C2CC2)c2cc(N3CCNCC3)c(F)cc2c1=O [CIPROFLOXACIN]	≤ 0.03	≤ 0.03	> 32	4 (≈ 12.1 µM)	–	0.06 (≈ 0.181 µM)	≤ 0.03	≤ 0.03	0.5 (≈ 1.51 µM)	≤ 0.03	–	–	0.25 (≈ 0.754 µM)	> 32	0.46
C=CCCC(=O)N1CCN(c2cc3c(cc2F)c(=O)c(C(=O)O)cn3C2CC2)CC1	1 (≈ 2.42 µM)	≤ 0.03	32 (≈ 77.4 µM)	> 32	16 (≈ 38.7 µM)	2 (≈ 4.84 µM)	0.5 (≈ 1.21 µM)	≤ 0.03	0.25 (≈ 0.605 µM)	1 (≈ 2.42 µM)	> 32	2 (≈ 4.84 µM)	0.25 (≈ 0.605 µM)	> 32	0.76
O=C(O)c1cn(C2CC2)c2cc(N3CCN(Cc4cccc(CN5CCN(c6cc7c(cc6F)c(=O)c(C(=O)O)cn7C6CC6)CC5)c4)CC3)c(F)cc2c1=O	2 (≈ 2.61 µM)	≤ 0.03	32 (≈ 41.8 µM)	> 32	32 (≈ 41.8 µM)	8 (≈ 10.5 µM)	1 (≈ 1.31 µM)	0.06 (≈ 0.0784 µM)	0.5 (≈ 0.654 µM)	2 (≈ 2.61 µM)	> 32	> 32	0.25 (≈ 0.327 µM)	> 32	1.18
O=C(CN1CCN(c2cc3c(cc2F)c(=O)c(C(=O)O)cn3C2CC2)CC1)NCCCN1CCN(CCCNC(=O)CN2CCN(c3cc4c(cc3F)c(=O)c(C(=O)O)cn4C3CC3)CC2)CC1	> 32	8 (≈ 8.48 µM)	> 32	> 32	> 32	> 32	> 32	2 (≈ 2.12 µM)	32 (≈ 33.9 µM)	> 32	> 32	> 32	8 (≈ 8.48 µM)	> 32	1.59
